According to patent publication US20240270762A1, “PENICILLIN-BINDING PROTEIN INHIBITORS” (priority 2021, published 2024):
Values after ≈ are worked out from the molar mass of the structure shown.

Tests used:
[1] = molecular target: T1, PBP3 from Pseudomonas aeruginosa (PAO1) (Pseudomonas aeruginosa, UniProt G3XD46); assay: Bocillin-FL fluorescence polarization competition binding, P. aeruginosa PBP3; conditions: Binding affinity to P. aeruginosa PBP3; fluorescence polarization competition binding assay using Bocillin-FL; read-out: P. aeruginosa PBP3 Potency
T1 construct: made in house
T1 sequence (G3XD46 whole entry): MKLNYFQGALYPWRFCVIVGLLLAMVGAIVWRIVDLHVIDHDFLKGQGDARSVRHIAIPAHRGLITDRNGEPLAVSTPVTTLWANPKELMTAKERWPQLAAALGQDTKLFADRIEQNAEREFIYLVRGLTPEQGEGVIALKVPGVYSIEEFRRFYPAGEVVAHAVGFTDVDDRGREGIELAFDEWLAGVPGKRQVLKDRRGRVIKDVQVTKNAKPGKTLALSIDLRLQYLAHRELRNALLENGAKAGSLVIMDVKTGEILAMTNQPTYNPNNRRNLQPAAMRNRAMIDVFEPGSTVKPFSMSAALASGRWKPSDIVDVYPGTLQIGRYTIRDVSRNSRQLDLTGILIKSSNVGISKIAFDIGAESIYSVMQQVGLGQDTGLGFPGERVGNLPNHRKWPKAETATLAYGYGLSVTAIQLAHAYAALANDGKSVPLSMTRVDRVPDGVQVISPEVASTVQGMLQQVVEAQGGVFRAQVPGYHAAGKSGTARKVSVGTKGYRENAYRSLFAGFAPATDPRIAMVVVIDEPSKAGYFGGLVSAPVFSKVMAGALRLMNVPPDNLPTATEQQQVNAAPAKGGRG
In short: (§1)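 Purified PBPs pre-incubated with inhibitor (E. coli PBP3 1.5 μM, 30 min; P. aeruginosa PBP3 0.75 μM, A. baumannii PBP1a 1 μM and PBP3 0.2 μM, 15 min), then Bocillin-FL 0.1 μM (0.05 μM for PBP1a) added; FP read up to 60 min. EC50 = concentration halving bound Bocillin-FL.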

[2] = molecular target: T2, PBP3 from Acinetobacter baumannii (ATCC 19606) (Acinetobacter baumannii, UniProt A0ABX6CK25); assay: Bocillin-FL fluorescence polarization competition binding, A. baumannii PBP3; conditions: fluorescence polarization competition binding assay using Bocillin-FL; read-out: A. baumannii PBP3 Potency
T2 sequence (A0ABX6CK25 64-610): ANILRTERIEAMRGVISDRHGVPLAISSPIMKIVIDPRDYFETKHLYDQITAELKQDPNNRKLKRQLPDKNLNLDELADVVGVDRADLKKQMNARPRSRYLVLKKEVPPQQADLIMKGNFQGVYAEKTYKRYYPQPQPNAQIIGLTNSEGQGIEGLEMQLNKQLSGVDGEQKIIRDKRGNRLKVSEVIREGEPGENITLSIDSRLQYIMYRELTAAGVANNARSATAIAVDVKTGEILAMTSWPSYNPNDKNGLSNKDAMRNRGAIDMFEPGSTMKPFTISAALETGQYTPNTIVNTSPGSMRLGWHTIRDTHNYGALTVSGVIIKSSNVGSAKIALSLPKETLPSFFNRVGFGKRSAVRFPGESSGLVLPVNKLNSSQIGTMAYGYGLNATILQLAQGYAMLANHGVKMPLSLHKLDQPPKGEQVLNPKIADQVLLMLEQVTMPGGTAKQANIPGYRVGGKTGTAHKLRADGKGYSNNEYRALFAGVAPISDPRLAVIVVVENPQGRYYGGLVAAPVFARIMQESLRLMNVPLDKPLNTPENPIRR
In short: as §1

A. baumannii PBP2 = A. baumannii PBP2 (Acinetobacter baumannii, UniProt D0C8Z9); assay: Bocillin-FL competition binding via gel filtration, A. baumannii PBP2
Sequence of A. baumannii PBP2 (D0C8Z9 whole entry): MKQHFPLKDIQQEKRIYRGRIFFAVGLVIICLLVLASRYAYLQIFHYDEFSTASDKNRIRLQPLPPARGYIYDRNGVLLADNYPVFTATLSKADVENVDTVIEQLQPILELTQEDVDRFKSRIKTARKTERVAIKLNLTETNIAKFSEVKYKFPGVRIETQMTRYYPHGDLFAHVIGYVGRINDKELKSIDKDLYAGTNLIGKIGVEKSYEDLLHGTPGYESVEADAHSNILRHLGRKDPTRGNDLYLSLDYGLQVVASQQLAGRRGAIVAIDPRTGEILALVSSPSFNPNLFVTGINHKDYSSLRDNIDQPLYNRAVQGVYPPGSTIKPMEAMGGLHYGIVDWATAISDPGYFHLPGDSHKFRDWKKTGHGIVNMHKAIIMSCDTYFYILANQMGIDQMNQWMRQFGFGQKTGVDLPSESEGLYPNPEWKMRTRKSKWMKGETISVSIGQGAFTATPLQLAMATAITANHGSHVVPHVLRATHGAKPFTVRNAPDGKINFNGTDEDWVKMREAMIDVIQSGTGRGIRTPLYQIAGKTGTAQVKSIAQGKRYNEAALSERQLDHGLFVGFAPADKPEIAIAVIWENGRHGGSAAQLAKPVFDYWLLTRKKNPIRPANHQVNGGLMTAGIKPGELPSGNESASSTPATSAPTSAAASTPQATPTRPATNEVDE
In short: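 Enzyme was pre-incubated with rising inhibitor concentrations, then Bocillin-FL was added and incubated 15 minutes more. Bound probe was separated by gel filtration and fluorescence read. EC50 came from fitting fraction of PBP labelled versus inhibitor concentration to a Hill equation with ymin, ymax and n.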

A. baumannii ATCC 17978 = assay: microbe, parasite or virus in culture; format: cell-based; conditions: Acinetobacter baumannii, ATCC17978, read-out: MIC, A. baumannii ATCC 17978
[3] = system: P. aeruginosa (ΔmexAB-oprM); assay: Broth microdilution MIC in iron-depleted CAMHB (IDM); format: cell-based; conditions: Pseudomonas aeruginosa; iron-depleted CAMHB (IDM); […]; read-out: Minimum inhibitory concentration, P. aeruginosa ΔmexAB-oprM
A. baumannii 1258916 = assay: microbe, parasite or virus in culture; format: cell-based, Acinetobacter baumannii; conditions: Acinetobacter baumannii, 1258916, read-out: MIC, A. baumannii 1258916
A. baumannii CDC-0036 = assay: microbe, parasite or virus in culture; format: cell-based; conditions: Acinetobacter baumannii, CDC0036, read-out: MIC, A. baumannii CDC-0036
P. aeruginosa CDC-0110 = assay: microbe, parasite or virus in culture; format: cell-based; conditions: Pseudomonas aeruginosa, CDC0110, read-out: Minimum inhibitory concentration, P. aeruginosa CDC-0110

In the case of `O=C(NCCCN1CCN(C(=O)NC(C(=O)N[C@H]2Cc3ccc(F)c(C(=O)O)c3OB2O)c2cc(F)c(O)c(O)c2Cl)C(=O)C1=O)c1ccncc1Cl` (stereo partly drawn) [Example 295, (3R)-3-(2-(2-chloro-5-fluoro-3,4-dihydroxyphenyl)-2-(4-(3-(3-chloroisonicotinamido)propyl)-2,3-dioxopiperazine-1-carboxamido)acetamido)-7-fluoro-2-hydroxy-3,4-dihydro-2H-benzo[e][1,2]oxaborinine-8-carboxylic acid], the IC50 [1] is reported as < 10 µM, the IC50 [2] is reported as < 10 µM and the EC50 (A. baumannii PBP2) is reported as 10 to 50 µM. For the same compound, the MIC (A. baumannii ATCC 17978) was < 1 µg/mL, the MIC [3] was < 1 µg/mL and the MIC (A. baumannii 1258916) was < 1 µg/mL. The MIC (A. baumannii CDC-0036) was 2 to 4 µg/mL (≈ 2.57 to 5.13 µM) and the MIC (P. aeruginosa CDC-0110) was < 1 µg/mL.

For `O=C(NCCCN1CCN(C(=O)N[C@@H](C(=O)N[C@H]2Cc3ccc(F)c(C(=O)O)c3OB2O)c2cc(F)c(O)c(O)c2Cl)C(=O)C1=O)c1ccncc1O` [Example 296, (R)-3-((R)-2-(2-chloro-5-fluoro-3,4-dihydroxyphenyl)-2-(4-(3-(3-hydroxyisonicotinamido)propyl)-2,3-dioxopiperazine-1-carboxamido)acetamido)-7-fluoro-2-hydroxy-3,4-dihydro-2H-benzo[e][1,2]oxaborinine-8-carboxylic acid], the IC50 [1] was < 10 µM, the IC50 [2] was < 10 µM and the EC50 (A. baumannii PBP2) was < 10 µM. For the same compound, the MIC (A. baumannii ATCC 17978) was < 1 µg/mL, the MIC [3] was < 1 µg/mL and the MIC (A. baumannii 1258916) was < 1 µg/mL. The MIC (A. baumannii CDC-0036) was < 1 µg/mL and the MIC (P. aeruginosa CDC-0110) was < 1 µg/mL.

For `Cc1cnccc1C(=O)NCCCN1CCN(C(=O)NC(C(=O)N[C@H]2Cc3ccc(F)c(C(=O)O)c3OB2O)c2cc(F)c(O)c(O)c2Cl)C(=O)C1=O` (stereo partly drawn) [Example 297, (3R)-3-(2-(2-chloro-5-fluoro-3,4-dihydroxyphenyl)-2-(4-(3-(3-methylisonicotinamido)propyl)-2,3-dioxopiperazine-1-carboxamido)acetamido)-7-fluoro-2-hydroxy-3,4-dihydro-2H-benzo[e][1,2]oxaborinine-8-carboxylic acid], the IC50 [1] was < 10 µM, the IC50 [2] was < 10 µM and the EC50 (A. baumannii PBP2) was 10 to 50 µM. The MIC (A. baumannii ATCC 17978) was < 1 µg/mL, the MIC [3] was < 1 µg/mL and the MIC (A. baumannii 1258916) was < 1 µg/mL. For the same compound, the MIC (A. baumannii CDC-0036) was 2 to 4 µg/mL (≈ 2.64 to 5.27 µM) and the MIC (P. aeruginosa CDC-0110) was < 1 µg/mL.

`Cc1cc(C(=O)NCCCN2CCN(C(=O)N[C@@H](C(=O)N[C@H]3Cc4ccc(F)c(C(=O)O)c4OB3O)c3cc(F)c(O)c(O)c3Cl)C(=O)C2=O)ccn1` [Example 298, (R)-3-((R)-2-(2-chloro-5-fluoro-3,4-dihydroxyphenyl)-2-(4-(3-(2-methylisonicotinamido)propyl)-2,3-dioxopiperazine-1-carboxamido)acetamido)-7-fluoro-2-hydroxy-3,4-dihydro-2H-benzo[e][1,2]oxaborinine-8-carboxylic acid] was tested, and the IC50 [1] was < 10 µM, the IC50 [2] was < 10 µM and the EC50 (A. baumannii PBP2) was 10 to 50 µM. The MIC (A. baumannii ATCC 17978) was < 1 µg/mL, the MIC [3] was < 1 µg/mL and the MIC (A. baumannii 1258916) was < 1 µg/mL. For the same compound, the MIC (A. baumannii CDC-0036) was < 1 µg/mL and the MIC (P. aeruginosa CDC-0110) was < 1 µg/mL.

`O=C(NCCCN1CCN(C(=O)NC(C(=O)N[C@H]2Cc3ccc(F)c(C(=O)O)c3OB2O)c2cc(F)c(O)c(O)c2Cl)C(=O)C1=O)c1ccc(O)c(Cl)c1` (stereo partly drawn) [Example 305, (3R)-3-(2-(4-(3-(3-chloro-4-hydroxybenzamido)propyl)-2,3-dioxopiperazine-1-carboxamido)-2-(2-chloro-5-fluoro-3,4-dihydroxyphenyl)acetamido)-7-fluoro-2-hydroxy-3,4-dihydro-2H-benzo[e][1,2]oxaborinine-8-carboxylic acid] was tested, and the IC50 [1] was < 10 µM, the IC50 [2] was < 10 µM and the EC50 (A. baumannii PBP2) was < 10 µM. For the same compound, the MIC (A. baumannii ATCC 17978) was < 1 µg/mL, the MIC [3] was < 1 µg/mL and the MIC (A. baumannii 1258916) was < 1 µg/mL. For the same compound, the MIC (A. baumannii CDC-0036) was 2 to 4 µg/mL (≈ 2.52 to 5.04 µM) and the MIC (P. aeruginosa CDC-0110) was < 1 µg/mL.

For `O=C(NCCCN1CCN(C(=O)NC(C(=O)N[C@H]2Cc3ccc(F)c(C(=O)O)c3OB2O)c2cc(F)c(O)c(O)c2Cl)C(=O)C1=O)c1ccc(O)c(F)c1F` (stereo partly drawn) [Example 306, (3R)-3-(2-(2-chloro-5-fluoro-3,4-dihydroxyphenyl)-2-(4-(3-(2,3-difluoro-4-hydroxybenzamido)propyl)-2,3-dioxopiperazine-1-carboxamido)acetamido)-7-fluoro-2-hydroxy-3,4-dihydro-2H-benzo[e][1,2]oxaborinine-8-carboxylic acid], the IC50 [1] was < 10 µM, the IC50 [2] was < 10 µM and the EC50 (A. baumannii PBP2) was < 10 µM. For the same compound, the MIC (A. baumannii ATCC 17978) was < 1 µg/mL, the MIC [3] was < 1 µg/mL and the MIC (A. baumannii 1258916) was < 1 µg/mL. For the same compound, the MIC (A. baumannii CDC-0036) was 2 to 4 µg/mL (≈ 2.51 to 5.03 µM) and the MIC (P. aeruginosa CDC-0110) was < 1 µg/mL.

In the case of `O=C(NCCCN1CCN(C(=O)NC(C(=O)N[C@H]2Cc3ccc(F)c(C(=O)O)c3OB2O)c2cc(F)c(O)c(O)c2Cl)C(=O)C1=O)c1ccc(O)cc1O` (stereo partly drawn) [Example 307, (3R)-3-(2-(2-chloro-5-fluoro-3,4-dihydroxyphenyl)-2-(4-(3-(2,4-dihydroxybenzamido)propyl)-2,3-dioxopiperazine-1-carboxamido)acetamido)-7-fluoro-2-hydroxy-3,4-dihydro-2H-benzo[e][1,2]oxaborinine-8-carboxylic acid], the IC50 [1] is reported as < 10 µM, the IC50 [2] is reported as < 10 µM and the EC50 (A. baumannii PBP2) is reported as < 10 µM. For the same compound, the MIC (A. baumannii ATCC 17978) was < 1 µg/mL, the MIC [3] was < 1 µg/mL and the MIC (A. baumannii 1258916) was < 1 µg/mL. The MIC (A. baumannii CDC-0036) was 2 to 4 µg/mL (≈ 2.58 to 5.16 µM) and the MIC (P. aeruginosa CDC-0110) was < 1 µg/mL.

In the case of `O=C(O)c1c(F)ccc2c1OB(O)[C@@H](NC(=O)C(NC(=O)N1CCN(C3CCN(C(=O)c4c(F)ccc(O)c4F)CC3)C(=O)C1=O)c1cc(F)c(O)c(O)c1Cl)C2` (stereo partly drawn) [Example 308, (3R)-3-(2-(2-chloro-5-fluoro-3,4-dihydroxyphenyl)-2-(4-(1-(2,6-difluoro-3-hydroxybenzoyl)piperidin-4-yl)-2,3-dioxopiperazine-1-carboxamido)acetamido)-7-fluoro-2-hydroxy-3,4-dihydro-2H-benzo[e][1,2]oxaborinine-8-carboxylic acid], the IC50 [1] is reported as < 10 µM, the IC50 [2] is reported as < 10 µM and the EC50 (A. baumannii PBP2) is reported as < 10 µM. For the same compound, the MIC (A. baumannii ATCC 17978) was < 1 µg/mL, the MIC [3] was < 1 µg/mL and the MIC (A. baumannii 1258916) was < 1 µg/mL. For the same compound, the MIC (A. baumannii CDC-0036) was 2 to 4 µg/mL (≈ 2.43 to 4.87 µM) and the MIC (P. aeruginosa CDC-0110) was < 1 µg/mL.

With `O=C(O)c1c(F)ccc2c1OB(O)[C@@H](NC(=O)C(NC(=O)N1CCN(C3CCN(C(=O)c4cc(O)cc(O)c4)CC3)C(=O)C1=O)c1cc(F)c(O)c(O)c1Cl)C2` (stereo partly drawn) [Example 309, (3R)-3-(2-(2-chloro-5-fluoro-3,4-dihydroxyphenyl)-2-(4-(1-(3,5-dihydroxybenzoyl)piperidin-4-yl)-2,3-dioxopiperazine-1-carboxamido)acetamido)-7-fluoro-2-hydroxy-3,4-dihydro-2H-benzo[e][1,2]oxaborinine-8-carboxylic acid] the IC50 [1] was < 10 µM, the IC50 [2] was < 10 µM and the EC50 (A. baumannii PBP2) was < 10 µM. The MIC (A. baumannii ATCC 17978) was < 1 µg/mL, the MIC [3] was < 1 µg/mL and the MIC (A. baumannii 1258916) was < 1 µg/mL. For the same compound, the MIC (A. baumannii CDC-0036) was < 1 µg/mL and the MIC (P. aeruginosa CDC-0110) was < 1 µg/mL.

`CN(CCCN1CCN(C(=O)NC(C(=O)N[C@H]2Cc3ccc(F)c(C(=O)O)c3OB2O)c2cc(F)c(O)c(O)c2Cl)C(=O)C1=O)C(=O)c1cccc(O)c1` (stereo partly drawn) [Example 310, (3R)-3-(2-(2-chloro-5-fluoro-3,4-dihydroxyphenyl)-2-(4-(3-(3-hydroxy-N-methylbenzamido)propyl)-2,3-dioxopiperazine-1-carboxamido)acetamido)-7-fluoro-2-hydroxy-3,4-dihydro-2H-benzo[e][1,2]oxaborinine-8-carboxylic acid] was tested, and the IC50 [1] was < 10 µM, the IC50 [2] was < 10 µM and the EC50 (A. baumannii PBP2) was 10 to 50 µM. For the same compound, the MIC (A. baumannii ATCC 17978) was < 1 µg/mL, the MIC [3] was < 1 µg/mL and the MIC (A. baumannii 1258916) was < 1 µg/mL. The MIC (A. baumannii CDC-0036) was 2 to 4 µg/mL (≈ 2.58 to 5.17 µM) and the MIC (P. aeruginosa CDC-0110) was < 1 µg/mL.

With `O=C(NCCCN1CCN(C(=O)NC(C(=O)N[C@H]2Cc3ccc(F)c(C(=O)O)c3OB2O)c2cc(F)c(O)c(O)c2Cl)C(=O)C1=O)c1ccncc1F` (stereo partly drawn) [Example 400, (3R)-3-(2-(2-chloro-5-fluoro-3,4-dihydroxyphenyl)-2-(4-(3-(3-fluoroisonicotinamido)propyl)-2,3-dioxopiperazine-1-carboxamido)acetamido)-7-fluoro-2-hydroxy-3,4-dihydro-2H-benzo[e][1,2]oxaborinine-8-carboxylic acid] the IC50 [1] was < 10 µM, the IC50 [2] was < 10 µM and the EC50 (A. baumannii PBP2) was 10 to 50 µM. For the same compound, the MIC (A. baumannii ATCC 17978) was < 1 µg/mL, the MIC [3] was < 1 µg/mL and the MIC (A. baumannii 1258916) was 2 to 4 µg/mL (≈ 2.62 to 5.24 µM). The MIC (A. baumannii CDC-0036) was 2 to 4 µg/mL (≈ 2.62 to 5.24 µM) and the MIC (P. aeruginosa CDC-0110) was < 1 µg/mL.
